Results on 11 compounds are retold here after ChEMBL document CHEMBL4706736, “Modulating Androgen Receptor in the Therapeutic Intervention for Prostate Cancer and Kennedy's Disease” (2021).

Where a SMILES comes first, the peptide text is derived from it. [ ]: non-standard residue; d: D form. The star is where a group is joined. X1 = O=C(COc1c(-c2csc(N3CCOCC3)n2)ccc(F)c1F)NCCCCCCN*; X4 = O=C(COc1c(-c2csc(N3CCOCC3)n2)ccc(F)c1F)NCCCCN*; X2 = Fc1ccc(-c2csc(N3CCOCC3)n2)c(OCCOCCOCCN*)c1F; X3 = O=C(NCCCCCCN*)c1cccc2sc(N3CCOCC3)nc12; Dip = N[C@H](C(=O)O)C(c1ccccc1)c1ccccc1; Chg = N[C@H](C(=O)O)C1CCCCC1; NMeA = CN[C@@H](C)C(=O)O

The subject of the experiment is CWR22R. The experiment in a line: Antiproliferative activity against human 22Rv1 cells assessed as reduction in cell viability at 10 uM incubated for 48 hrs by automated cell counting analysis relative to control. The experiment is classed as functional.
The inhibition is the share of the control response that was lost under treatment. Regarding `NCCCCCCCCCCNc1cccc2c1C(=O)N(C1CCC(=O)NC1=O)C2=O` (stereo unspecified), the inhibition at 10 µM is below 50%.

Consider `Cc1ncsc1-c1ccc([C@H](C)NC(=O)[C@@H]2C[C@@H](O)CN2C(=O)[C@@H](NC(=O)CCCCNC(=O)COc2c(-c3csc(N4CCOCC4)n3)ccc(F)c2F)C(C)(C)C)cc1`, for which the inhibition at 10 µM was below 50%.

For the compound `CN[C@@H](C)C(=O)N[C@H](C(=O)N1CCC[C@H]1C(=O)N[C@H](C(=O)NCCCCCCNC(=O)COc1c(-c2csc(N3CCOCC3)n2)ccc(F)c1F)C(c1ccccc1)c1ccccc1)C1CCCCC1` (H-[NMeA][Chg]P[Dip]-X1), the inhibition at 10 µM was above 50%.

Turning to `COc1cc(C(=O)NCCOCCOCCOc2c(-c3csc(N4CCOCC4)n3)ccc(F)c2F)ccc1NC(=O)[C@@H]1N[C@@H](CC(C)(C)C)[C@](C#N)(c2ccc(Cl)cc2F)[C@H]1c1cccc(Cl)c1F`, the inhibition at 10 µM was above 50%.

Take `O=C1CCC(N2C(=O)c3cccc(NCCCCCCNC(=O)c4cn(-c5csc(N6CCOCC6)n5)cn4)c3C2=O)C(=O)N1` (stereo unspecified): the inhibition at 10 µM is 0%.

For `COc1cc(C(=O)NCCCCNC(=O)COc2c(-c3csc(N4CCOCC4)n3)ccc(F)c2F)ccc1NC(=O)[C@@H]1N[C@@H](CC(C)(C)C)[C@](C#N)(c2ccc(Cl)cc2F)[C@H]1c1cccc(Cl)c1F`, the inhibition at 10 µM is above 50%.

In the case of `CN[C@@H](C)C(=O)N[C@H](C(=O)N1CCC[C@H]1C(=O)N[C@H](C(=O)NCCOCCOCCOc1c(-c2csc(N3CCOCC3)n2)ccc(F)c1F)C(c1ccccc1)c1ccccc1)C1CCCCC1` (H-[NMeA][Chg]P[Dip]-X2), the inhibition at 10 µM is above 50%.

On to `CN[C@@H](C)C(=O)N[C@H](C(=O)N1CCC[C@H]1C(=O)N[C@H](C(=O)NCCCCNC(=O)COc1c(-c2csc(N3CCOCC3)n2)ccc(F)c1F)C(c1ccccc1)c1ccccc1)C1CCCCC1` (H-[NMeA][Chg]P[Dip]-X4), for which the inhibition at 10 µM is above 50%.

For the compound `CN[C@@H](C)C(=O)N[C@H](C(=O)N1Cc2cc(OCCOCCOc3c(-c4csc(N5CCOCC5)n4)ccc(F)c3F)ccc2C[C@H]1C(=O)N[C@@H]1CCCc2ccccc21)C(C)(C)C`, the inhibition at 10 µM is above 50%.

With `CN[C@@H](C)C(=O)N[C@H](C(=O)N1CCC[C@H]1C(=O)N[C@H](C(=O)NCCCCCCNC(=O)c1cccc2sc(N3CCOCC3)nc12)C(c1ccccc1)c1ccccc1)C1CCCCC1` (H-[NMeA][Chg]P[Dip]-X3), the inhibition at 10 µM was above 50%.

For the compound `CN[C@@H](C)C(=O)N[C@H](C(=O)N1Cc2cc(OCCOCCOCCOc3c(-c4csc(N5CCOCC5)n4)ccc(F)c3F)ccc2C[C@H]1C(=O)N[C@@H]1CCCc2ccccc21)C(C)(C)C`, the inhibition at 10 µM is above 50%.
